Measurements: patent US12391653B2, “Salt form and crystal form of mutant IDH1 inhibitor and preparation method therefor” (KPC PHARMACEUTICALS, INC, priority 2019, dated 2025)

Legend:
IDH1 (R132H) = IDH1 (R132H) (Homo sapiens, UniProt O75874, R132H); assay: IDH1 enzyme activity test in vitro (IDH1 R132H); format: biochemical
Experimental: (§1) IDH1 mutant catalyzes the NADPH-dependent reduction of α-KG (α-ketoglutaric acid) to 2-HG (2-hydroxyglutaric acid), and the consumed NADPH can be read out by fluorescence.
(§2) Basic reaction buffer: 50 mM KH2PO4, pH 7.5, 10 mM […], 10% glycerol, 150 mM NaCl, 0.05% BSA (bovine serum albumin), 2 mM b-ME (2-mercaptoethanol), 0.003% Brij35 (oxyethylene lauryl ether)
(§3) Substrates and cCofactors:
(§4) 1.33× enzyme (no control wells), buffer and NADP or NADPH (control wells) were added to the wells of a reaction plate. The compounds to be tested were dissolved in 100% DMSO, then added to the enzyme mixture (Echo550, nanoliter level) and incubated for 60 min after brief centrifugation. A mixture of 4× substrate and cofactor was added to start the reaction, briefly centrifuged, shaken, and incubated at room temperature for 45 min. A mixture of 3× lipoamide dehydrogenase and resazurin was prepared, added to the reaction solution to test the amount of the generated or remaining NADPH, incubated at room temperature for 10 min after simple centrifugation, and measured using a multifunctional microplate reader Envision (Ex/Em±535/590 nm).

U87MG IDH1-R132H = molecular target: T1, U87MG IDH1-R132H (Homo sapiens, UniProt O75874, R132H); assay: IDH1 cytological activity test, 2HG content in cell culture supernatant by LC-MS; format: cell-based
T1 construct: expressed in transfected cells; host or cells: U87MG
Experimental: In this study, after co-incubating the compound with IDH1 mutant cell lines, the 2HG content in the cell culture supernatant was detected by LC-MS to determine the inhibitory activity of the compound on IDH1 mutants. IDH1 catalyzes the reduction of isocitrate to α-ketoglutaric acid (α-KG) in vivo, while IDH1 mutants further catalyze the reduction of α-KG to 2-hydroxyglutaric acid (2HG).
U87MG-IDH1-R132H cell line is a stable transfected cell line that can stably express IDH1-R132H mutant by transfecting U87MG cells with IDH1-R132H, and HT1080 cell line contains endogenous IDH1-R132C mutant.
The experimental process is as follows:
1) The compound was 3-fold serially diluted with DMSO and added to a cell culture plate, with a total of 10 concentrations, each concentration in duplicate. Negative control wells contained DMSO only, and positive control wells contained BAY1436032 at a final concentration of 5 μM. The final concentration of DMSO in all wells was 0.5%.
2) The IDH1 mutant cell line was seeded into the compound-containing cell culture plate at a density of 40,000 cells/well. Cells were co-incubated with compounds for 3 days in a 37° C., 5% CO2 incubator.
3) After 3 days, 10 μl of cell culture supernatant was taken, diluted 21 times with 200 μl of ddH2O to 210 μl and mixed well. […]

[1] = Pharmacokinetic evaluation in mice; design: species or system CD-1 mice; conditions: mouse, in vivo
Experimental: The pharmacokinetic parameters of the compound represented by formula (I) were detected in mice.
1) Experimental drug: compound represented by formula (I);
2) Experimental animals: 8 male CD-1 mice aged 7-10 weeks, divided into 2 groups, 4 mice in each group;
3) Drug preparation: for the tail vein injection group, an appropriate amount of the drug was weighed out and dissolved in a mixed solvent of DMSO: 20% hydroxypropyl beta-cyclodextrin (HPbCD)±10:90 to prepare a solution of 0.5 mg/mL; for the gavage administration group, an appropriate amount of the drug was weighed out and dissolved in a mixed solvent of DMSO: polyoxyethylene castor oil EL (Cremophor EL): 5% sulfobutylcyclodextrin (Captisol)±5:10:85 to prepare into a suspension.
Animals in group 1 were given a single dose of 1 mg/kg drug at a concentration of 0.5 mg/mL via tail vein injection, and animals in group 2 were given the compound at a dose of 20 mg/kg at a concentration of 2 mg/mL by gavage. Animals were cross-collected for plasma samples at 0.0833 (the tail vein injection group only), 0.25, 0.5, 1, 2, 4, 6, 8 and 24 h after administration. The drug concentration in the plasma samples was determined by LC-MS/MS method, and the kinetic parameters of the tested drugs were obtained in Table 11: […]

IDH1 (R132C) = IDH1 (R132C) (Homo sapiens, UniProt O75874, R132C); assay: IDH1 enzyme activity test in vitro (IDH1 R132C); format: biochemical
Experimental: as §1, §2, §3, §4

IDH1 wt (wild type) = IDH1 wt (wild type) (Homo sapiens, UniProt O75874); assay: IDH1 enzyme activity test in vitro (IDH1 wild type); format: biochemical
Experimental: as §1, §2, §3
IDH1 wt (wild type): 65 μM isocitrate ±50 μM NADP
as §4

[2] = Hygroscopicity study by dynamic vapor sorption (DVS); format: physicochemical; conditions: 25° C. and 80% RH
Experimental: Dynamic Vapor Sorption (DVS) Method of the Present Disclosure
Instrument model: SMS DVS intrinsic dynamic moisture adsorption instrument
Test conditions: 10 mg of the sample was weighed out and placed in a DVS sample tray for testing.
The detailed DVS parameters were as follows:
RH (%) test gradient range: 0%-95%-0%
The hygroscopicity evaluation is classified as follows:
SMS DVS intrinsic Dynamic Vapor Sorption Instrument

[3] = Solid stability test (crystalline form by XRPD); format: physicochemical; conditions: Light (total illuminance = 1.2 × 10^6 Lux, Near UV = 200 w · hr/m^2, open)
[4] = Solid stability test (crystalline form by XRPD); format: physicochemical
Experimental: According to the “Guidelines for Stability Test of Raw Materials and Preparations” (General Principles 9001 of Part Four of Chinese Pharmacopoeia 2015 Edition), crystalline form E of the compound represented by formula (I) was investigated for stability at high temperature (60° C., open), high humidity (room temperature/relative humidity 92.5%, open) and strong light (5000 lx, closed).
About 10 mg of compound represented by formula (I) was accurately weighed out, placed in a dry and clean glass bottle, spread out into a thin layer and covered with aluminum foil with small holes under the influence factor test conditions (60° C., 92.5% RH) and accelerated conditions (40° C./75% RH and 60° C./75% RH). The samples placed under the condition of light (visible light 1200000 Lux, ultraviolet 200 W) were in transparent glass bottles, with one group fully exposed and the other fully packaged with aluminum foil. Samples in duplicate were placed under each condition at each time point, and the samples for XRPD detection were placed separately. Samples placed under different conditions were sampled for XRPD detection at the planned test end point, and the test results were compared with the initial test results at Day 0.

T1 sequence (O75874 whole entry R132H): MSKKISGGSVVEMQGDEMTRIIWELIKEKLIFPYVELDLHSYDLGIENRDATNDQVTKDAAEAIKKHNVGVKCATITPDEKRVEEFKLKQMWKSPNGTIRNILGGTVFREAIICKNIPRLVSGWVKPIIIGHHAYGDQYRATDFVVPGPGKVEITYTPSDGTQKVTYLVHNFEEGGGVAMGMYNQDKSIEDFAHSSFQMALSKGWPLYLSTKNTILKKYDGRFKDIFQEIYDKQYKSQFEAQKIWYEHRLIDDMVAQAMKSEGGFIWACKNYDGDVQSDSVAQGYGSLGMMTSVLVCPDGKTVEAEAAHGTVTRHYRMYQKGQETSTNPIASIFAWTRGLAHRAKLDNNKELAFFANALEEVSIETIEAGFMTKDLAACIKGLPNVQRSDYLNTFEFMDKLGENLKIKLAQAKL
IDH1 wt (wild type), sequence (O75874 whole entry): as the sequence (O75874 whole entry R132H) above, with H132R counted along it
IDH1 (R132C), sequence (O75874 whole entry R132C): as the sequence (O75874 whole entry R132H) above, with H132C counted along it
IDH1 (R132H), sequence (O75874 whole entry R132H): as the sequence (O75874 whole entry R132H) above

inhibitory effect on mutant IDH1R132H at the enzymatic level (IDH1 (R132H))	2-HG inhibitory effect on U87MG glioma cells with IDH1R132H mutation (U87MG IDH1-R132H)	IC50 (U87MG IDH1-R132H; 2-HG inhibition, cells co-incubated with compound for 3 days)	pharmacokinetic properties in mice [1]	inhibitory effect on mutant IDH1R132C at the enzymatic level (IDH1 (R132C))	inhibitory effect on wild-type IDH protein (IDH1 wt (wild type))	Hygroscopic classification [2]	hygroscopic weight gain ΔW [2]	Crystalline form ([3]; 5 days)	Crystalline form ([3]; 10 days)	Crystalline form ([4]; 0 days (initial))	Crystalline form ([4]; 25° C./92.5% RH, open, 5 days)	Crystalline form ([4]; 25° C./92.5% RH, open, 10 days)	Crystalline form ([4]; 40° C./75% RH, open, 1 month)	Crystalline form ([4]; 40° C./75% RH, open, 2 months)	Crystalline form ([4]; 40° C./75% RH, open, 3 months)	Crystalline form ([4]; 60° C., open, 5 days)	Crystalline form ([4]; 60° C., open, 10 days)	Crystalline form ([4]; 60° C./75% RH, open, 1 month)	Crystalline form ([4]; 60° C./75% RH, open, 2 months)	Compound
good inhibitory effect	good 2-HG inhibitory effect	38.2 nM	good pharmacokinetic properties	good inhibitory effect	no inhibitory effect															O=C(O)CCc1ccc2c(c1)nc(Nc1ccc(OC(F)(F)F)cc1)n2[C@@H]1CCCc2ccccc21 [Compound represented by formula (I)]
						non-hygroscopic	0.09%	Crystalline form B	Crystalline form B	Crystalline form B	Crystalline form B	Crystalline form B	Crystalline form B	Crystalline form B	Crystalline form B	Crystalline form B	Crystalline form B	Crystalline form B	Crystalline form B	O=C(O)CCc1ccc2c(c1)nc(Nc1ccc(OC(F)(F)F)cc1)n2[C@@H]1CCCc2ccccc21
